The results in this text go back to PubChem BioAssay (NCI).

Holding throughout (assay): NCI-60 cell line screen, 48 h
Experiment [1] concerns HOP-92 NSCLC.
For experiment [2], the system named is NCI-H23 lung.
The test system of experiment [3] is UO-31 renal.
Experiment [4] has as its system HCC-2998 colon.
For experiment [5], the system named is T-47D breast.
For experiment [6], the system named is CAKI-1 renal.
The test system of experiment [7] is TK-10 renal.
The test system of experiment [8] is RXF 393 renal.
Experiment [9] deals with HL-60(TB) leukemia.
The test system of experiment [10] is 786-0 renal.

Values joined by “and” are separate entries in the source; they are usually repeats but may differ in a detail not shown here. Equal values may be shown once.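 These data come from cells grown in 96-well plates and exposed to compound for 48 hours at five concentrations. GI50 = concentration required for 50% inhibition of growth. TGI marks complete inhibition of growth.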

Regarding `COc1ccccc1-c1ccc2nc(NC(=O)Nc3cc(C(F)(F)F)cc(C(F)(F)F)c3)sc2c1`, the GI50 in experiment [1] was 1.19 µM; in experiment [2] it was 2.02 µM; in experiment [3], 1.79 µM; in experiment [4], 2.65 µM; in experiment [5], 2.16 µM; in experiment [6], 2.33 µM. In addition, the GI50 in experiment [7] is 4.03 µM; in experiment [8], 2.19 µM; in experiment [9] it was 2.01 µM; in experiment [10], 1.44 µM. The TGI in [1] stood at 4.31 µM; in experiment [2], 7.09 µM; in [3], 4.07 µM; in [4] it was 11.1 µM; in [5], 9.89 µM; in experiment [6], 6.35 µM. For the same compound, the TGI in experiment [7] amounted to 13.2 µM; in experiment [8], 6.18 µM; in experiment [9] it was 4.53 µM; in experiment [10], 3.25 µM.

As for `Clc1ccccc1-c1nc(-c2ccncc2)no1`, the TGI is greater than 100 µM in [1]; greater than 100 µM in experiment [2]; greater than 100 µM in [3]; 84.8 µM in experiment [4]; greater than 100 µM in [5]; greater than 100 µM in experiment [6]. The TGI is greater than 100 µM in experiment [7], greater than 100 µM in [8], 29.2 µM in experiment [9] and greater than 100 µM in experiment [10].

With `O=C1c2ccccc2C(=O)c2c(NC(=O)C(Cl)CCl)cccc21` (configuration not stated), the TGI in [1] is 9.82 µM; in experiment [2], 11.6 µM; in experiment [3], 24.1 µM; in experiment [4] it was 32.4 µM; in [5] it was greater than 27.5 µM; in [6] it was 38.8 µM. The TGI was 18.1 µM in experiment [7], 16.2 µM in [8], 2.68 µM in experiment [9] and 11.9 µM in experiment [10].

On to `CC(C)[C@](O)(C(=O)OCC1=CC[N+]2([O-])CC[C@@H](O)[C@@H]12)[C@H](C)O` (some centres not stated), for which the TGI in experiment [1] is greater than 10000 µM; in experiment [2], greater than 6000 µM; in experiment [3] it was greater than 10000 µM; in [4], greater than 10000 µM; in [5] it was greater than 10000 µM; in [6], greater than 9520 µM. Besides, the TGI was greater than 10000 µM in [7], greater than 7940 µM in experiment [8], 9860 µM in experiment [9] and greater than 10000 µM in experiment [10].

Consider `[C-]#[O+].[C-]#[O+].[Ir].[O-]c1ccc2ccccc2c1N=Nc1ccccc1`, for which the TGI in experiment [1] is 32.4 µM; in experiment [2], 31.7 µM; in experiment [3] it was 24.4 µM; in [4], 29.4 µM; in [5], 33.5 µM; in [6], 22.7 µM. For the same compound, the TGI in experiment [7] is 17.3 µM; in experiment [8], 6.78 µM; in experiment [9], 7.76 µM; in experiment [10], 12.2 µM. Besides, the GI50 in experiment [5] was 11.9 µM; in [10], 3.39 µM.

With `CC(N)(Cc1c[nH]c2ccccc12)C(=O)O` (configuration not stated), the GI50 is 1800 µM in experiment [1]; greater than 2500 µM in experiment [2]; greater than 2500 µM in experiment [3]; greater than 2500 µM in [4]; greater than 2500 µM in experiment [5]; greater than 2500 µM in [6]. The GI50 in experiment [7], in experiment [8], in experiment [9] and in [10] was greater than 2500 µM each time. Also, the TGI in [1], in experiment [2], in [3], in experiment [4], in experiment [5] and in [6] was greater than 2500 µM throughout. Besides, the TGI in [7], in experiment [8], in [9] and in experiment [10] was greater than 2500 µM throughout.

As to `Fc1c[c-]c(-c2ccccn2)c(F)c1.[CH3-].[Pt+2].c1ccc([PH+](c2ccccc2)c2ccccn2)cc1`, the GI50 in experiment [1] was 1.18 µM; in experiment [2] it was 1.57 µM; in [3] it was 1.08 µM; in [4] it was 1.83 µM; in experiment [5] it was 1.13 µM; in experiment [6] it was 1.23 µM. Further, the GI50 was 3.59 µM in experiment [7], 1.32 µM in experiment [8], 2.05 µM in [9] and 1.93 µM in experiment [10]. Moreover, the TGI in experiment [1] was 2.68 µM; in [2], 3.64 µM; in experiment [3], 2.28 µM; in experiment [4], 3.53 µM; in experiment [5], 5.78 µM; in [6], 2.53 µM. Further, the TGI is 12.9 µM in experiment [7], 2.76 µM in experiment [8], 7.28 µM in [9] and 4.03 µM in experiment [10].

In the case of `COc1ccc(-c2ccc3ncc4c(c3c2)n(-c2ccc(N3CCNCC3)c(C(F)(F)F)c2)c(=O)n4C)cn1`, the GI50 is < 0.01 µM and 0.00146 µM in [1]; < 0.0131 µM and 0.0156 µM in [2]; < 0.01 µM and 0.00417 µM in [3]; < 0.01 µM and 0.00675 µM in experiment [4]; < 0.01 µM and 0.00189 µM in [5]; 0.0179 µM and 0.0119 µM in [6]. The GI50 is < 0.01 µM and 0.00865 µM in experiment [7]; < 0.01 µM and 0.0018 µM in experiment [8]; 0.0143 µM in experiment [9]; < 0.01 µM and 0.00325 µM in [10]. For the same compound, the TGI in [1] was 0.0219 µM and 0.0155 µM; in [2], 0.424 µM and 0.439 µM; in experiment [3], 0.196 µM and 0.0269 µM; in experiment [4] it was 1.34 µM and 0.269 µM; in experiment [5], < 0.01 µM and 0.021 µM; in [6] it was 0.884 µM and 0.118 µM. The TGI is 0.0379 µM and 0.109 µM in experiment [7]; < 0.0323 µM and 0.00977 µM in experiment [8]; 0.113 µM in experiment [9]; 0.111 µM and 0.107 µM in [10].

As to `CSC1=Nc2c(c(C)c(-c3ccccc3)n2CCCCl)C2=NC(=O)CN12`, the GI50 in [1] was 11.5 µM; in experiment [2] it was 8.26 µM; in [3], 10.5 µM; in experiment [4], 4.52 µM; in [5], 2.63 µM; in experiment [6], 4.6 µM. The GI50 was 8.45 µM in experiment [7], 11.3 µM in [8], 3.41 µM in [9] and 8.57 µM in experiment [10]. Also, the TGI in experiment [1] worked out at 37 µM; in [2], 46.3 µM; in experiment [3] it was 28.6 µM; in experiment [4] it was 19.7 µM; in experiment [5], 10.9 µM; in [6], 28.1 µM. For the same compound, the TGI in [7] was 78.3 µM; in experiment [8] it was 29.8 µM; in experiment [9] it was greater than 100 µM; in experiment [10], 61.7 µM.
